Test results taken from ChEMBL document CHEMBL4828768, “Talaromynoids A-I, Highly Oxygenated Meroterpenoids from the Marine-Derived Fungus Talaromyces purpureogenus SCSIO 41517 and Their Lipid Accumulation Inhibitory Activities” (J Nat Prod, 2021).
Active and inactive are the calls of the source. The calls are words filed in the database; no cut-off is given here.

Key:
Conditions in all cases: dose 6.7 µg/ml
[1] = target: T1, M-phase inducer phosphatase 2 (Homo sapiens) (UniProt P30305); experiment: Inhibition of human recombinant CDC25B expressed in Escherichia coli assessed as inhibition of phosphatase activity by measuring p-nitrophenyl phosphate at 6.7 microg/ml measured after 60 mins
T1 sequence (whole entry): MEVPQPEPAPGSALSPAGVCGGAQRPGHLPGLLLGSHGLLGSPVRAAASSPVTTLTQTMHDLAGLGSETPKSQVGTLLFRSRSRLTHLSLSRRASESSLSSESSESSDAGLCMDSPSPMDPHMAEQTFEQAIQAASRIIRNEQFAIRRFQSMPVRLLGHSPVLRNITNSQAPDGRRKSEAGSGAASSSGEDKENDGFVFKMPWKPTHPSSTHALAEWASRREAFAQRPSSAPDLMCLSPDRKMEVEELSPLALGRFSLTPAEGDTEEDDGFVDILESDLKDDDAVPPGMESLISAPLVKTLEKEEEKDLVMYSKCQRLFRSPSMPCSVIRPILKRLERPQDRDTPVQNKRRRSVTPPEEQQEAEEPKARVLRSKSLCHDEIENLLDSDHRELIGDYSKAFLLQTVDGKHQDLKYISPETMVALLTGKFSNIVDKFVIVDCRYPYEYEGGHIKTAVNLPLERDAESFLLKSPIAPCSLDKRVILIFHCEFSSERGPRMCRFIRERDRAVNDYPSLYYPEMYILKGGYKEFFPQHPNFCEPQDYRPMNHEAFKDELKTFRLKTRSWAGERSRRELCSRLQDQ

[2] = target: Tyrosine-protein phosphatase non-receptor type 6 (Homo sapiens) (UniProt P29350); experiment: Inhibition of human recombinant SHP1 expressed in Escherichia coli assessed as inhibition of phosphatase activity by measuring p-nitrophenyl phosphate at 6.7 microg/ml measured after 60 mins
[3] = target: T2, Tyrosine-protein phosphatase non-receptor type 9 (Homo sapiens) (UniProt P43378); experiment: Inhibition of human recombinant MEG2 expressed in Escherichia coli assessed as inhibition of phosphatase activity by measuring p-nitrophenyl phosphate at 6.7 microg/ml measured after 60 mins
T2 sequence (whole entry): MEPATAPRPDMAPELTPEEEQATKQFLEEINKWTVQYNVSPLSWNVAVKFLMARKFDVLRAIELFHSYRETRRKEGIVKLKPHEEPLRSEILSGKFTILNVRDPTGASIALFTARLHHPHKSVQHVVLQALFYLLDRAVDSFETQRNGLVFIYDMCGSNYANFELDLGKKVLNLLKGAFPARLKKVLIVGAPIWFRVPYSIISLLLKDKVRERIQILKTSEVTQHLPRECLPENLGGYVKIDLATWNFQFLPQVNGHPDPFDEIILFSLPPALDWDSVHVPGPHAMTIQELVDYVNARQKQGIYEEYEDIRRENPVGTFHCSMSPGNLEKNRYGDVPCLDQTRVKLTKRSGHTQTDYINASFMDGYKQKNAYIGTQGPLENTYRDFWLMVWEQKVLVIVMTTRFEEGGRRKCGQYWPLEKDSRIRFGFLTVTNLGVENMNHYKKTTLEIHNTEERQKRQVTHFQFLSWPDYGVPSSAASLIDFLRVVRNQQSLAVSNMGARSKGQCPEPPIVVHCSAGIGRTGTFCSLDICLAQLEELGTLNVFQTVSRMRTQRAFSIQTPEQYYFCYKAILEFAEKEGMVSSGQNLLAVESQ

[4] = target: T3, Receptor-type tyrosine-protein phosphatase C (Homo sapiens) (UniProt P08575); experiment: Inhibition of human recombinant CD45 expressed in Escherichia coli assessed as inhibition of phosphatase activity by measuring p-nitrophenyl phosphate at 6.7 microg/ml measured after 60 mins
T3 sequence (whole entry): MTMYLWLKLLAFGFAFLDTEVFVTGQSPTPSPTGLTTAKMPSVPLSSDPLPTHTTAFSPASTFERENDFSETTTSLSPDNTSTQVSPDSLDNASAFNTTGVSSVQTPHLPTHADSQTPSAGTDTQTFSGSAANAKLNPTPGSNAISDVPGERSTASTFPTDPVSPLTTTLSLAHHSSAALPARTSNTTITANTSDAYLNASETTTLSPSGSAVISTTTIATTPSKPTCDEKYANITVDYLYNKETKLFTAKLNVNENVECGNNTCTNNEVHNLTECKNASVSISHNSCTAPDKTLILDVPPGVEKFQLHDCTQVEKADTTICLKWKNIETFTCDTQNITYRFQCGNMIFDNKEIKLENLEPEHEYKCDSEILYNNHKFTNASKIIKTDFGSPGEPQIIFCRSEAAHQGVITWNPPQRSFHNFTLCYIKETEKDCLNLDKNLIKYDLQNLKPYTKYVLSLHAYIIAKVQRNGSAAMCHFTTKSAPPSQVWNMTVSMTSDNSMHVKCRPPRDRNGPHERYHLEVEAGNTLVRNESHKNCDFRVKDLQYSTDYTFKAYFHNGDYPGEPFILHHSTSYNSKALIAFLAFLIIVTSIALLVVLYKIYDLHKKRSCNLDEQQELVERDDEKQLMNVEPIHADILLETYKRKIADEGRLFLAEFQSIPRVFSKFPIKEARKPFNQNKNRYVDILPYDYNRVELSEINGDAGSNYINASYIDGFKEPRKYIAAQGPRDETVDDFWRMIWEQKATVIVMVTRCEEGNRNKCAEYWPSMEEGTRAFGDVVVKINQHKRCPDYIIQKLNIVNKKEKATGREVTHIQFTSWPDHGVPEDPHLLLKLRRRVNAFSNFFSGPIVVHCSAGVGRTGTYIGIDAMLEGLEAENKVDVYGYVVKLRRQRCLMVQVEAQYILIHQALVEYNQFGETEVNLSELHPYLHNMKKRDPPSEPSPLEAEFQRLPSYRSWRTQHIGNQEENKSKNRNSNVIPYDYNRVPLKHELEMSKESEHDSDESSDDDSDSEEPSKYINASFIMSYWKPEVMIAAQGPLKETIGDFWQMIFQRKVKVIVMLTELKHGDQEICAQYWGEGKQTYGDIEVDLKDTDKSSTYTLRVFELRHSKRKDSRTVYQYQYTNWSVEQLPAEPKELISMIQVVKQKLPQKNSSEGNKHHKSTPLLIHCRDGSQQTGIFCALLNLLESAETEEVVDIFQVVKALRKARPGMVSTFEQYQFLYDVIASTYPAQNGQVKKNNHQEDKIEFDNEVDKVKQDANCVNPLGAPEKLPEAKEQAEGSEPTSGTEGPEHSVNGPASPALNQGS

Sequence of Tyrosine-protein phosphatase non-receptor type 6 (Homo sapiens) (P29350 whole entry): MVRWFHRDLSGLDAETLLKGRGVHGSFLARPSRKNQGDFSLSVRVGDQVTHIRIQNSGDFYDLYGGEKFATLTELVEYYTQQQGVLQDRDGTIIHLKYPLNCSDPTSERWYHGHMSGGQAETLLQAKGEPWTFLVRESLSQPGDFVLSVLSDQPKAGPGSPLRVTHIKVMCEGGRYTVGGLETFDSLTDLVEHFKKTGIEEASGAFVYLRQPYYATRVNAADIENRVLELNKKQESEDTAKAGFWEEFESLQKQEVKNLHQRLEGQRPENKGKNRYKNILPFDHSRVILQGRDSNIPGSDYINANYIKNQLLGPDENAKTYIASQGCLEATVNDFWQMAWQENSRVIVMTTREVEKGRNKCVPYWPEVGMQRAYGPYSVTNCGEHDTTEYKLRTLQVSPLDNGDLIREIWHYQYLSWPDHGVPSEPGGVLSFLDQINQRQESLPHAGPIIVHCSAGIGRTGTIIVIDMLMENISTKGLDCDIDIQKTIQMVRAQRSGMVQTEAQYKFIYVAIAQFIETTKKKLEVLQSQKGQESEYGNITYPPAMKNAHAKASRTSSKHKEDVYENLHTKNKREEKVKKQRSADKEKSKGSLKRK

inhibition [1]	inhibition [2]	inhibition [3]	inhibition [4]	SMILES
< 60%	< 60%	< 60%	< 60%	COC(=O)CC1=C(C)[C@@H]2C[C@@]3(C)C(=O)O[C@H]4O[C@@H](C)[C@@]5(O)O[C@@H]([C@@H]6O[C@]16C(C)(C)O)[C@]2(C)[C@@]5(C(=O)OC)[C@H]43
< 60%	< 60%	< 60%	< 60%	COC(=O)[C@]12C(=O)[C@H](C)O[C@@H]3OC(=O)[C@](C)(C[C@H]4C(C)=C5CC(=O)OC(C)(C)C5=CC[C@@]41C)[C@@H]32 [BERKELEYACETAL A]
< 60%	< 60%	< 60%	< 60%	COC(=O)[C@]12[C@@H]3[C@@H](O)O[C@@H](C)[C@@]14OC(=O)[C@]3(C)C[C@H]1C(C)=C3CC(=O)OC(C)(C)[C@@]35O[C@H]5[C@H](O4)[C@@]12C
< 60%	< 60%	< 60%	< 60%	COC(=O)[C@]12[C@@H]3[C@H]4OC(=O)[C@]3(C)C[C@H]3C(C)=C5CC(=O)OC(C)(C)[C@@]56O[C@H]6[C@H](O[C@]1(O)[C@H](C)O4)[C@@]32C
< 60%	< 60%	< 60%	< 60%	COC(=O)[C@]12C3=C(C)O[C@@H]4OC(=O)[C@](C)(C[C@H]5C(C)=C6CC(=O)O[C@@]6(C(C)(C)O)[C@@H](C[C@@]51C)O3)[C@@H]42
< 60%	< 60%	< 60%	< 60%	COC(=O)CC1=C(C)[C@H]2C[C@]3(C)C(=O)O[C@@H]4O[C@H](C)[C@]5(O)O[C@@H]([C@H]6O[C@@]16C(C)(C)O)[C@@]2(C)[C@@]51C(=O)O[C@@]413
< 60%	< 60%	< 60%	< 60%	COC(=O)[C@]12C3=C(C)O[C@@H]4OC(=O)[C@](C)(C[C@H]5C(C)=C6CC(=O)O[C@@]6(C(C)(C)O)[C@H](O3)[C@H](O)[C@@]51C)[C@@H]42
< 60%	< 60%	< 60%	< 60%	COC(=O)[C@]12[C@@H]3[C@H]4OC(=O)[C@]3(C)CC3=C(C)C5=C(C[C@H](O[C@]1(O)[C@H](C)O4)[C@@]32C)C(C)(C)OC(=O)C5

More lines, now with the values behind:

SMILES	inhibition [1]	inhibition [2]	inhibition [3]	inhibition [4]
COC(=O)CC1=C(C)[C@@H]2C[C@@]3(C)C(=O)O[C@H]4O[C@@H](C)[C@@]5(O)O[C@@H]([C@@H]6O[C@]16C(C)(C)O)[C@]2(C)[C@@]5(C(=O)OC)[C@]43O	< 60%	< 60%	< 60%	< 60%
COC(=O)[C@@]12[C@@]3(C)[C@@H]4C=C5C(=CC(=O)OC5(C)C)[C@@](C)(O)[C@@H]3C[C@@]3(C)C(=O)O[C@@H](O[C@@H](C)[C@@]1(O)O4)[C@@]23O	Active	< 60%	< 60%	< 60%
CC1=C2CC(=O)OC(C)(C)C2=CC[C@@]2(C)[C@H]1C[C@@](C)(C(=O)O)[C@]13COC(=O)[C@@]12C(=O)[C@H](C)O3	< 60%	< 60%	< 60%	< 60%
COC(=O)[C@]12C(=O)[C@@](C)(O)C(=O)[C@](C)(C[C@H]3C(C)=C4CC(=O)OC(C)(C)C4=CC[C@@]31C)[C@]21CO1	< 60%	< 60%	< 60%	< 60%
CC1=C2CC(=O)OC(C)(C)[C@]23O[C@@H]3[C@@H]2O[C@@]3(O)[C@@H](C)O[C@H]4OC(=O)[C@]5(C)C[C@H]1[C@]2(C)[C@@]31C(=O)O[C@@]415	< 60%	< 60%	< 60%	< 60%
